According to US11753447B2, “Cyclic peptides, methods of synthesis, and methods of treatment” (priority 2020, dated 2023):
Numbered stars: 1 amine (or outer) side, 2 acyl side, 3 side chain; on linkers, the order of the positions; unused ones are H or OH. Square brackets hold non-standard residues; d marks the D form. Peptide text beside a SMILES is read from it. X1 = O=C(Cc1ccc(CCN[*:1])cc1)[*:2]

Assays:
SARS-CoV-2 = settings: cell-based studies; cited from earlier work
HEK-293 cells = settings: 72 hours
SARS-CoV-2 M^pro [1] = target: T1, SARS-CoV-2 M^pro (Severe acute respiratory syndrome coronavirus 2, UniProt P0DTD1); test: biochemical; settings: 0.1 μM M^pro, 50 μM fluorogenic substrate, 30 min pre-incubation, 37° C., non-linear regression of initial rates; read-out: IC50 against M^pro
T1 construct: purchased Life Sensors

SARS-CoV-2 M^pro [2] = target: T1, SARS-CoV-2 M^pro; test: LC/MS analysis of enzyme inhibition assay well solution for cleavage of UCI-1 by M^pro; format: biochemical; settings: 187.5 μM UCI-1 well solution after 4 hours, compared with peptide-1c spike

| SMILES | SARS-CoV-2 replication (SARS-CoV-2) | further results |
| --- | --- | --- |
| O=C[C@H](C[C@@H]1CCNC1=O)NC(=O)[C@H](Cc1cccc(F)c1)NC(=O)c1cc2ccccc2[nH]1 [11b] | block SARS-CoV-2 replication | – |
| Cc1cc(C(=O)NC(C)C(=O)NC(C(=O)NC(CC(C)C)C(=O)NC(C=CC(=O)OCc2ccccc2)CC2CCNC2=O)C(C)C)no1 (centres unmarked) [N3] | block SARS-CoV-2 replication | – |
| NCCCC[C@@H]1NC(=O)[C@H](CO)NC(=O)[C@H](CCC(N)=O)NC(=O)[C@H](Cc2ccccc2)NC(=O)Cc2ccc(cc2)CCNC1=O [UCI-1] (cyclo(FQSK[X1])) | – | cytotoxicity (HEK-293 cells; concentrations up to 256 μM, HEK-293): not cytotoxic; LDH release from HEK-293 cells (HEK-293 cells; highest concentration evaluated (256 μM)): little or no LDH release; IC50 (SARS-CoV-2 M^pro [1]): ~160 µM; cleavage by M^pro (SARS-CoV-2 M^pro [2]): not appreciably cleaved |
| CC(C)(C)OC(=O)Nc1cccn([C@@H](CC2CC2)C(=O)N[C@@H](C[C@@H]2CCNC2=O)C(=O)C(=O)NCc2ccccc2)c1=O [13b] | block SARS-CoV-2 replication | – |
| O=C[C@H](C[C@@H]1CCNC1=O)NC(=O)[C@H](CC1CCCCC1)NC(=O)c1cc2ccccc2[nH]1 [11a] | block SARS-CoV-2 replication | – |
